These results are taken from ChEMBL document CHEMBL3865791, “Discovery and development of natural product oridonin-inspired anticancer agents” (Eur J Med Chem, 2016).

Structures are written as SMILES.

The nature of data set [1]: Toxicity in iv dosed Sprague-Dawley rat administered qd for 28 days. The following applies: in vivo. Type of data set: organism-based.
A short description of data set [2]: Antiproliferative activity against human MCF7 cells. Type of data set: functional, cell-based.
Data set [3] is described as follows: Antiproliferative activity against human MDA-MB-231 cells. Type of data set: functional, cell-based.
The nature of data set [4]: Cytotoxicity against human K562 cells by MTT assay. Type of data set: functional, cell-based. (Formazan colour is commonly taken as a measure of viable cells.)
The subject of data set [5] is MDA-MB-231. The data set is described as follows: Potency index, ratio of Oridonin EC50 to compound EC50 for human MDA-MB-231. In kind it is functional.
Data set [6] can be described thus: Antiproliferative activity against human […] cells after 24 hrs by MTT assay. In kind it is functional, cell-based.
Data set [7] can be described thus: Antitumor activity against H22 cells xenografted in ICR mouse assessed as tumor growth inhibition at 20 mg/kg/day, ip administered for 4 consecutive days relative to control. Type of data set: functional. The settings on record: read-out: TGI.
Data set [8] can be described thus: Antiproliferative activity against human K562 cells after 72 hrs by MTT assay. Type of data set: functional, cell-based. The settings on record: K562, 72 h.
The nature of data set [9]: Antiproliferative activity against human […] cells after 72 hrs by MTT assay. In kind it is functional, cell-based.
Data set [10] in a line: Antiproliferative activity against human MGC803 cells after 72 hrs by MTT assay. Type of data set: functional, cell-based. The following applies: MGC-803, 72 h.
A short description of data set [11]: Antiproliferative activity against human CaEs17 cells after 72 hrs by MTT assay. The following applies: CaEs17, 72 h. Type of data set: functional, cell-based.
Data set [12] can be described thus: Antitumor activity against human MGC803 cells xenografted in ICR mouse assessed as tumor growth inhibition at 40 mg/kg/day, ip for 25 consecutive days relative to control. Type of data set: functional. The following applies: MGC-803, ip, read-out: TGI.
Data set [13] in a line: Antiproliferative activity against human MDA-MB-231 cells measured after 48 hrs by MTT assay. Type of data set: functional, cell-based. The following applies: MDA-MB-231, 48 h.
The nature of data set [14]: Antiproliferative activity against human ER-positive MCF7 cells measured after 48 hrs by MTT assay. In kind it is functional, cell-based. The settings on record: MCF7, 48 h.
Data set [15] is described as follows: Anticancer activity against AML cells isolated from AML-ETO9a leukemia mouse measured after 48 hrs by CCK8 assay. Type of data set: functional, cell-based.
A short description of data set [16]: Anticancer activity against human Kasumi-1 cells measured after 48 hrs by CCK8 assay. Type of data set: functional, cell-based. The following applies: Kasumi 1, 48 h.
Data set [17] is described as follows: Anticancer activity against human K562 cells measured after 24 hrs by MTT assay. Type of data set: functional, cell-based. The settings on record: K562, 24 h.
The nature of data set [18]: Anticancer activity against human K562/ADR cells measured after 24 hrs by MTT assay. Type of data set: functional, cell-based.
A short description of data set [19]: Anticancer activity against human MT1 cells measured after 48 hrs by trypan blue assay. Type of data set: functional, cell-based. The settings on record: MT1, 48 h.
A short description of data set [20]: Anticancer activity against human MT2 cells measured after 48 hrs by trypan blue assay. In kind it is functional, cell-based. The settings on record: MT2, 48 h.
Data set [21] in a line: Anticancer activity against human U266 cells measured after 48 hrs by trypan blue assay. The settings on record: U-266, 48 h. In kind it is functional, cell-based.
Data set [22] is described as follows: Anticancer activity against human RPMI8226 cells measured after 48 hrs by trypan blue assay. The following applies: RPMI-8226, 48 h. In kind it is functional, cell-based.
Data set [23] in a line: Anticancer activity against human Jurkat cells measured after 48 hrs by trypan blue assay. In kind it is functional, cell-based.
Data set [24] in a line: Anticancer activity against human Hep2 cells measured after 24 hrs by MTT assay. In kind it is functional, cell-based. The following applies: HEp-2, 24 h.
Data set [25] in a line: Anticancer activity against human LX2 cells measured after 48 hrs by alamar blue assay. Type of data set: functional, cell-based. The settings on record: LX-2, 48 h. Background: Alamar Blue is a resazurin reagent that responds to reducing activity.
A short description of data set [26]: Anticancer activity against rat HSC-T6 cells measured after 48 hrs by alamar blue assay. Type of data set: functional, cell-based. The settings on record: HSC-T6, 48 h.
The nature of data set [27]: Anticancer activity against human PC3 cells measured after 48 hrs by CCK8 assay. Type of data set: functional, cell-based. The following applies: PC-3, 48 h.
Data set [28] can be described thus: Anticancer activity against human LNCAP cells measured after 48 hrs by CCK8 assay. Type of data set: functional, cell-based.
A short description of data set [29]: Anticancer activity against human SW480 cells measured after 24 hrs by MTT assay. The following applies: SW480, 24 h. In kind it is functional, cell-based.
A short description of data set [30]: Anticancer activity against human SW620 cells measured after 24 hrs by MTT assay. In kind it is functional, cell-based. The following applies: SW-620, 24 h.
A short description of data set [31]: Antiproliferative activity against human ER-triple negative MDA-MB-468 cells measured after 48 hrs by MTT assay. Type of data set: functional, cell-based. The settings on record: MDA-MB-468, 48 h.
Data set [32] can be described thus: Antiproliferative activity against human MCF7/ADR cells measured after 48 hrs by MTT assay. The settings on record: NCI/ADR-RES. Type of data set: functional, cell-based.
Data set [33] in a line: Oral bioavailability in Wistar rat at 20 mg/kg administered as single dose through gavage measured after 48 hrs by HPLC/ESI-MS analysis. The following applies: in vivo. In kind it is ADME, organism-based.
Data set [34] can be described thus: Oral bioavailability in Wistar rat at 10 mg/kg, ip administered as single dose measured after 36 hrs by HPLC/ESI-MS analysis. Type of data set: ADME, organism-based. The settings on record: in vivo, intraperitoneal.

For `C=C1C(=O)[C@]23[C@H](OC(=O)[C@H](C)N)[C@H]1CC[C@H]2[C@@]12CO[C@@]3(O)[C@@H](O)[C@@H]1C(C)(C)CC[C@@H]2O.O=C(O)C(F)(F)F`, the NOAEL – broadly, the highest dose or exposure tested at which no adverse effect was seen – at 672 h in data set [1] stood at 40 mg/kg.
On to `C=C1C(=O)[C@]23[C@H](O)[C@H]1CC[C@H]2[C@@]12CO[C@@]3(O)[C@@H](O)[C@@H]1C(C)(C)Cc1sc(NC)nc12`, for which the EC50 (as a rule, the concentration giving half of the maximal effect) was determined as 1300 nM in data set [2] and 2100 nM in data set [3].
In the same order, the values of `C=C1C(=O)[C@]23[C@H](O)[C@H]1CC[C@H]2[C@@]12CO[C@@]3(O)[C@@H](O)[C@@H]1C(C)(C)Cc1sc(NCCCC)nc12` are 600 nM and 1100 nM.
The compound `CC(=O)[C@@H]1CC[C@H]2[C@@]34CO[C@@]5(O)[C@@H](OC(=O)[C@]25[C@@H]1O)[C@@H]3C(C)(C)CC[C@@H]4O` had an EC50 in data set [4] of 18500 nM.
With `C=C1C(=O)[C@]23[C@H](O)[C@H]1CC[C@H]2[C@@]12CO[C@@]3(O)[C@@H](O)[C@@H]1C(C)(C)Cc1sc(N3CCCCCC3)nc12`, the EC50 in data set [2] was 1200 nM; in data set [3], 6800 nM.
With `C=CCNc1nc2c(s1)CC(C)(C)[C@H]1[C@H](O)[C@]3(O)OC[C@@]21[C@@H]1CC[C@H]2C(=C)C(=O)[C@]13[C@@H]2O`, in [5], the “Ratio EC50” value was found to be 147. In addition, the 50% effective concentration (EC50) in data set [2] and in [3] was 200 nM throughout.
In turn, `C=C1C(=O)[C@]23[C@H](OC(=O)CC(CCCCCCCCCCCC)C(=O)O)[C@H]1CC[C@H]2[C@@]12CO[C@@]3(O)[C@@H](O)[C@@H]1C(C)(C)CC[C@@H]2O` (some centres undefined) registered an EC50 in data set [6] of 2060 nM. For the same compound, in data set [7], the inhibition in vivo at 20 mg/kg/day stood at 63.7%.
`C=C1C(=O)[C@]23[C@H](O)[C@H]1CC[C@H]2[C@@]12CO[C@@]3(O)[C@@H](O)[C@@H]1C(C)(C)Cc1sc(NCCN3CCCCC3)nc12`: the half-maximal effective concentration (EC50) in data set [2] came to 1000 nM; in data set [3], 1800 nM.
In the same order, the values of `C=C1C(=O)[C@]23[C@H](O)[C@H]1CC[C@H]2[C@@]12CO[C@@]3(O)[C@@H](O)[C@@H]1C(C)(C)Cc1sc(N)nc12` are 1000 nM and 3200 nM.
As to `C=C1C(=O)[C@@]23C(=O)O[C@H]4CCC(C)(C)[C@H]5C(=O)OC[C@@]45[C@@H]2CC[C@@H]1[C@H]3OC(=O)c1cccnc1`, the concentration giving a half-maximal response (EC50) in [8] was 1740 nM; in data set [9] it was 710 nM; in data set [10] it was 1160 nM; in data set [11] it was 3540 nM. The inhibition in vivo at 40 mg/kg/day in data set [12] worked out at 64.8%.
As to `C=C1C(=O)[C@@]23[C@@H]4OC(C)(C)O[C@@]25OC[C@]2([C@@H](n6cc(-c7ccccc7)nn6)C=CC(C)(C)[C@H]2[C@@H]5O)[C@@H]3CC[C@@H]14`, in [5], the “Ratio EC50” value turned out to be 61. The EC50 in data set [13] was 480 nM.
Take `C=C1C(=O)[C@]23[C@H](O)[C@H]1CC[C@H]2[C@@]12CO[C@@]3(O)[C@@H](O)[C@@H]1C(C)(C)Cc1sc(N(C)C)nc12`: the 50% effective concentration (EC50) was 800 nM in data set [2] and 300 nM in data set [3].
In the same order, the values of `C=C1C(=O)[C@]23[C@H](O)[C@H]1CC[C@H]2[C@@]12CO[C@@]3(O)[C@@H](O)[C@@H]1C(C)(C)Cc1sc(NC3CCCCC3)nc12` are 900 nM and 800 nM.
Take `C=C1C(=O)[C@]23[C@H](O)[C@H]1CC[C@H]2[C@@]12CO[C@]3(O)[C@@H](O)[C@@H]1C(C)(C)CC[C@@H]2O` [ORIDONIN]: the half-maximal effective concentration (EC50) in [14] was 4400 nM; in [15], 2500 nM; in data set [16], 1330 nM; in data set [17], 14600 nM; in data set [18] it was less than 40000 nM; in [19], 1200 to 2700 nM. In addition, the EC50 is 1200 to 2700 nM in [20]; 1200 to 2700 nM in data set [21]; 1200 to 2700 nM in data set [22]; 1200 to 2700 nM in [23]; 37100 nM in data set [24]; 7000 nM in [25]. In addition, the EC50 in data set [26] was 7000 nM; in data set [27], 25000 nM; in data set [28], 25000 nM; in data set [29], 20800 to 37000 nM; in data set [30] it was 20800 to 37000 nM; in data set [6], 29800 nM. The concentration giving a half-maximal response (EC50) in data set [8] is 4760 nM; in data set [9], 7480 nM; in [2], 6600 nM; in data set [3], 29400 nM; in data set [13], 28000 to 29400 nM; in data set [31], 5300 nM. Besides, the EC50 in data set [32] was determined as 34800 nM; in data set [10] it was 5690 nM; in data set [11], 11000 nM. In addition, in data set [7], the inhibition in vivo at 20 mg/kg/day came out at 42.7%. Further, the inhibition in vivo at 40 mg/kg/day in data set [12] came out at 37.3%. The bioavailability – broadly, the share of a dose that reaches the circulation, judged against a reference dose that is usually intravenous – is 4.3% in [33] and 12.6% in data set [34].
